Values joined by “and” are separate entries in the source; they are usually repeats but may differ in a detail not shown here. Equal entries are not always repeated. Where two headings read alike, the source gives them in different places.
Experiments:
Type in all cases: cell-based, human
[1] = test system: HCC1806 wild-type cells; assay: FMP assay in the absence of amino acid substrate (non-specific effects)
Description: The FLIPR Membrane Potential Blue Explorer Kit (Molecular Devices) was used to characterise inhibitors and to optimise a high-throughput compound screen. Cells were seeded at approximately 60,000 cells/well on a 96-well plate and allowed to attach and grow overnight in a cell incubator. The next day, the cells were washed once with mHBSS and incubated in a starvation medium (composed of mHBSS with 1% dialysed heat-inactivated FBS, 23 mM NaHCO3, 10 U/ml penicillin and 10 μg/ml streptomycin) for 24 h. Cells were then washed once with mHBSS and incubated with 50 µl of the mHBSS-resuspended FMP assay dye and 50 µl of mHBSS (with or without inhibitors) and incubated at room temperature for 30 min. The plate was then placed in an EnSpire Multimode plate reader (PerkinElmer) and four sequential measurements of fluorescence were recorded as a baseline reference. […] The excitation wavelength was set to 530 nm and the emission was detected at 565 nm. The Δ fluorescent signal reported in the figures was taken 30 s after substrate addition. After the assay was complete, the liquid content of the plate was carefully removed, and the cell monolayer inspected to ensure it remained intact throughout the course of the assay.

[2] = test system: HPAFII cells; assay: Growth assay (IncuCyte confluence), HPAFII; parameters: key to Growth (Figure 6A) / cell confluence (Figure 6F): % confluence
Description: (§1) Cells were seeded on 96-well flat bottom plates at approximately 3000 cells/well and incubated in growth medium (DMEM/F12 supplemented with 10% FBS, 2 mM glutamine) for 24 h. The next day, the growth medium was aspirated and exchanged with 300 μL/well of growth medium containing compounds at the indicated concentration. For live cell analysis, plates were placed in the IncuCyte system (Essen Bioscience), which was housed in a cell incubator (37°C, humidified atmosphere composed of 95% air and 5% CO2) and confluence measured at 6-h intervals or at the assay endpoint when untreated control cells reached a confluency >90%. Antibiotics (10 U/mL penicillin and 10 μg/ml streptomycin) were included in the treatment solutions.
(§2) Growth curves were generated using the Gompertz function of OriginPro software: y=ae^−e^(−k(x−xc))
(§3) Where a is the maximum confluence or upper asymptote, k is the growth rate coefficient, xc is the time point at which 50% confluence is reached (inflection point) and e is Euler’s number. Cell growth data are shown as % confluence.
Synergism between drug combinations was quantified using ZIP synergy scoring as calculated by SynergyFinder ([Yadav et al., 2015]).

[3] = test system: SKOV3 cells; assay: Growth assay (IncuCyte confluence), SKOV3; parameters: key to Growth (Figure 6A): % confluence; settings: for Growth (Figure 6A): SKOV3
Description: as §1, §2, §3

[4] = test system: HCC1806 cells; assay: Growth assay (IncuCyte confluence), HCC1806; settings: HCC1806, growth medium
Description: as §1, §2, §3

[5] = test system: SNAT1/2; assay: FMP assay: depolarisation by amino acid substrates in amino acid depleted HCC1806 cells
Description: The FLIPR Membrane Potential Blue Explorer Kit (Molecular Devices) was used to characterise inhibitors and to optimise a high-throughput compound screen. Cells were seeded at approximately 60,000 cells/well on a 96-well plate and allowed to attach and grow overnight in a cell incubator. […] Cells were then washed once with mHBSS and incubated with 50 µl of the mHBSS-resuspended FMP assay dye and 50 µl of mHBSS (with or without inhibitors) and incubated at room temperature for 30 min. The plate was then placed in an EnSpire Multimode plate reader (PerkinElmer) and four sequential measurements of fluorescence were recorded as a baseline reference. Immediately after the baseline measurements were taken, 25 µl of 5 mM glutamine dissolved in mHBSS was injected into each well and the plate was shaken orbitally for 5 s before a series of consecutive fluorescence measurements were taken. The excitation wavelength was set to 530 nm and the emission was detected at 565 nm. […] After the assay was complete, the liquid content of the plate was carefully removed, and the cell monolayer inspected to ensure it remained intact throughout the course of the assay.

`Cc1ccc(S(=O)(=O)N(C)c2ccsc2C(=O)NCc2ccccc2C(F)(F)F)cc1` [Compound 57_E, 3-(N-methyl (4-methylphenyl)sulfonamido)-N-(2-trifluoromethylbenzyl)thiophene-2-carboxamide] was tested, and the “effect on FMP signal without substrate” value ([1]; 30 µM) was “small hyperpolarisation”, the “FMP fluorescence trace (Figure 4C)” value ([1]; time 0) was 66214 and 65985 and 59075 and the “FMP fluorescence trace (Figure 4C)” value ([1]; time 20) was 50115 and 66503 and 60514. For the same compound, the “FMP fluorescence trace (Figure 4C)” value ([1]; time 40) was 49573 and 67066 and 60917, the “FMP fluorescence trace (Figure 4C)” value ([1]; time 60) was 49249 and 67578 and 60989 and the “FMP fluorescence trace (Figure 4C)” value ([1]; time 80) was 48925 and 68056 and 61565. For the same compound, the “FMP fluorescence trace (Figure 4C)” value ([1]; time 100) was 48207 and 68319 and 61663, the “FMP fluorescence trace (Figure 4C)” value ([1]; time 120) was 47392 and 68434 and 62185 and the “FMP fluorescence trace (Figure 4C)” value ([1]; time 140) was 47194 and 68990 and 62194. For the same compound, the “FMP fluorescence trace (Figure 4C)” value ([1]; time 160) was 46255 and 69305 and 62352, the “FMP fluorescence trace (Figure 4C)” value ([1]; time 180) was 45269 and 69919 and 62492 and the “FMP fluorescence trace (Figure 4C)” value ([1]; time 200) was 44480 and 70206 and 63053. The “FMP fluorescence trace (Figure 4C)” value ([1]; time 220) was 43946 and 70155 and 63572, the “FMP fluorescence trace (Figure 4C)” value ([1]; time 240) was 43376 and 70703 and 63707 and the “FMP fluorescence trace (Figure 4C)” value ([1]; time 260) was 42447 and 71161 and 64093. For the same compound, the “FMP fluorescence trace (Figure 4C)” value ([1]; time 280) was 41764 and 71707 and 64350, the “FMP fluorescence trace (Figure 4C)” value ([1]; time -20) was 65818 and 65842 and 59063 and the “FMP fluorescence trace (Figure 4C)” value ([1]; time -40) was 65477 and 66036 and 58494. The tolerated concentration [2] was ≤ 100 µM, the “Growth (Figure 6A)” value ([2]; concentration 1) was 93.8 and 96.25 and 96.4 and the “Growth (Figure 6A)” value ([2]; concentration 3) was 93.35 and 98.85 and 97.6. The “Growth (Figure 6A)” value ([2]; concentration 10) was 91.1 and 94.2 and 97.05, the “Growth (Figure 6A)” value ([2]; concentration 30) was 73 and 75.75 and 89.85 and the “Growth (Figure 6A)” value ([2]; concentration 100) was 46.05 and 59.8 and 57.25. The tolerated concentration ([2]; growth medium) was “up to 30 μM”, the “growth of SKOV3 cells” value ([3]; 57E 20 µM alone) was “did not slow growth” and the tolerated concentration ([3]; SKOV3, growth medium) was “up to 30 μM”. For the same compound, the “Growth (Figure 6A)” value ([3]; concentration 1) was 88.8 and 91.35 and 86.25, the “Growth (Figure 6A)” value ([3]; concentration 3) was 85.9 and 94.3 and 88.85 and the “Growth (Figure 6A)” value ([3]; concentration 10) was 89 and 93.8 and 85. The “Growth (Figure 6A)” value ([3]; concentration 30) was 64.8 and 80.1 and 77.7, the “Growth (Figure 6A)” value ([3]; concentration 100) was 70.05 and 72.4 and 76.75 and the tolerated concentration [4] was “up to 30 μM”.
With `NC(=O)CC[C@H](N)C(=O)O` [Glutamine, glutamine] the “FMP response as substrate” value ([5]; 1 mM) was “strongest response”, the Km ([5]; FMP signal plateau vs glutamine concentration, HCC1806 AA- (24h)) was 120 ± 10 µM and the FMP fluorescence reading ([5]; glutamine 0.01mM, t=60 s) was 68858 and 69253 and 69708. The FMP fluorescence reading ([5]; glutamine 0.01mM, t=75 s) was 69325 and 69681 and 70188, the FMP fluorescence reading ([5]; glutamine 0.01mM, t=90 s) was 69269 and 70070 and 70405 and the FMP fluorescence reading ([5]; glutamine 0.01mM, t=105 s) was 69763 and 69788 and 70466. For the same compound, the FMP fluorescence reading ([5]; glutamine 0.03mM (c24-c26), t=60 s) was 77460 and 80576 and 83628, the FMP fluorescence reading ([5]; glutamine 0.03mM (c24-c26), t=75 s) was 77730 and 80978 and 84391 and the FMP fluorescence reading ([5]; glutamine 0.03mM (c24-c26), t=90 s) was 78184 and 81512 and 84232. For the same compound, the FMP fluorescence reading ([5]; glutamine 0.03mM (c24-c26), t=105 s) was 78227 and 82096 and 85186, the FMP fluorescence reading ([5]; glutamine 0.03mM (last group, c32-c34), t=60 s) was 64072 and 69800 and 70295 and the FMP fluorescence reading ([5]; glutamine 0.03mM (last group, c32-c34), t=75 s) was 63883 and 70289 and 71073. For the same compound, the FMP fluorescence reading ([5]; glutamine 0.03mM (last group, c32-c34), t=90 s) was 63947 and 70196 and 70790, the FMP fluorescence reading ([5]; glutamine 0.03mM (last group, c32-c34), t=105 s) was 64771 and 70484 and 71450 and the FMP fluorescence reading ([5]; glutamine 0.1mM, t=60 s) was 88925 and 96285 and 98180. For the same compound, the FMP fluorescence reading ([5]; glutamine 0.1mM, t=75 s) was 90234 and 97546 and 98972, the FMP fluorescence reading ([5]; glutamine 0.1mM, t=90 s) was 91221 and 98690 and 100400 and the FMP fluorescence reading ([5]; glutamine 0.1mM, t=105 s) was 92076 and 98971 and 100952. The FMP fluorescence reading ([5]; glutamine 0.3mM, t=60 s) was 99455 and 107961 and 111369, the FMP fluorescence reading ([5]; glutamine 0.3mM, t=75 s) was 100398 and 109749 and 113586 and the FMP fluorescence reading ([5]; glutamine 0.3mM, t=90 s) was 101543 and 111206 and 114721. For the same compound, the FMP fluorescence reading ([5]; glutamine 0.3mM, t=105 s) was 102418 and 111967 and 115020, the FMP fluorescence reading ([5]; glutamine 1mM, t=60 s) was 112569 and 120148 and 129663 and the FMP fluorescence reading ([5]; glutamine 1mM, t=75 s) was 115039 and 122576 and 131835. For the same compound, the FMP fluorescence reading ([5]; glutamine 1mM, t=90 s) was 116433 and 124735 and 133470, the FMP fluorescence reading ([5]; glutamine 1mM, t=105 s) was 117747 and 125438 and 134724 and the FMP fluorescence reading ([5]; glutamine 1mM, t=120 s) was 118812 and 126597 and 134693. For the same compound, the FMP fluorescence reading ([5]; glutamine 3mM, t=60 s) was 133412 and 124199 and 129325, the FMP fluorescence reading ([5]; glutamine 3mM, t=75 s) was 135706 and 127374 and 131981 and the FMP fluorescence reading ([5]; glutamine 3mM, t=90 s) was 138077 and 129014 and 134980. The FMP fluorescence reading ([5]; glutamine 3mM, t=105 s) was 139888 and 130819 and 136553, the FMP fluorescence reading ([5]; glutamine 3mM, t=120 s) was 140944 and the FMP fluorescence reading ([5]; glutamine 10mM, t=60 s) was 123199 and 132978 and 133617. For the same compound, the FMP fluorescence reading ([5]; glutamine 10mM, t=75 s) was 127611 and 136168 and 137553, the FMP fluorescence reading ([5]; glutamine 10mM, t=90 s) was 130129 and 138788 and 140464 and the FMP fluorescence reading ([5]; glutamine 10mM, t=105 s) was 132559 and 141221 and 142567.

Source: publication PMC9532951, “Identification and characterization of a novel SNAT2 (SLC38A2) inhibitor reveals synergy with glucose transport inhibition in cancer cells” (Frontiers in Pharmacology, 2022)
